Reference: US20260356819A1, “OXOISOINDOLINYL-SUBSTITUTED […] DERIVATIVE AND USE THEREOF” (GLUETACS THERAPEUTICS (SHANGHAI) CO., LTD., priority 2023, published 2026)

How the values were obtained:
Type in all cases: cell-based
Conditions in all cases: compounds at 50 nM and 500 nM
WEE1 = target: T1, WEE1 (Homo sapiens, UniProt P30291+Q96SW2); test: Western blot degradation of WEE1 in hPBMCs (24 h)
T1 construct: The supernatant was aspirated as the extracted total cell protein; endogenous in cells; host or cells: human peripheral blood mononuclear cells (hPBMCs)
In short: (§1)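 Degradation in primary human PBMCs after 24 h compound exposure at 50 and 500 nM. Western blot band intensities, normalised to an internal control protein, expressed as % protein remaining relative to DMSO.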

IKZF1 = target: T2, IKZF1 (Homo sapiens, UniProt Q13422+Q96SW2); test: Western blot degradation of IKZF1 in hPBMCs (24 h)
T2 construct: The supernatant was aspirated as the extracted total cell protein; endogenous in cells; host or cells: human peripheral blood mononuclear cells (hPBMCs)
In short: as §1

IKZF2 = target: T3, IKZF2 (Homo sapiens, UniProt Q96SW2+Q9UKS7); test: Western blot degradation of IKZF2 in hPBMCs (24 h)
T3 construct: The supernatant was aspirated as the extracted total cell protein; endogenous in cells; host or cells: human peripheral blood mononuclear cells (hPBMCs)
In short: as §1

IKZF3 = target: T4, IKZF3 (Homo sapiens, UniProt Q96SW2+Q9UKT9); test: Western blot degradation of IKZF3 in hPBMCs (24 h)
T4 construct: The supernatant was aspirated as the extracted total cell protein; endogenous in cells; host or cells: human peripheral blood mononuclear cells (hPBMCs)
In short: as §1

CK1α = target: T5, CK1α (Homo sapiens, UniProt P48729+Q96SW2); test: Western blot degradation of CK1α in hPBMCs (24 h)
T5 construct: The supernatant was aspirated as the extracted total cell protein; endogenous in cells; host or cells: human peripheral blood mononuclear cells (hPBMCs)
In short: as §1

GSPT1 = target: T6, GSPT1 (Homo sapiens, UniProt P15170+Q96SW2); test: Western blot degradation of GSPT1 in hPBMCs (24 h)
T6 construct: The supernatant was aspirated as the extracted total cell protein; endogenous in cells; host or cells: human peripheral blood mononuclear cells (hPBMCs)
In short: as §1

T3 sequence (Q9UKS7 whole entry): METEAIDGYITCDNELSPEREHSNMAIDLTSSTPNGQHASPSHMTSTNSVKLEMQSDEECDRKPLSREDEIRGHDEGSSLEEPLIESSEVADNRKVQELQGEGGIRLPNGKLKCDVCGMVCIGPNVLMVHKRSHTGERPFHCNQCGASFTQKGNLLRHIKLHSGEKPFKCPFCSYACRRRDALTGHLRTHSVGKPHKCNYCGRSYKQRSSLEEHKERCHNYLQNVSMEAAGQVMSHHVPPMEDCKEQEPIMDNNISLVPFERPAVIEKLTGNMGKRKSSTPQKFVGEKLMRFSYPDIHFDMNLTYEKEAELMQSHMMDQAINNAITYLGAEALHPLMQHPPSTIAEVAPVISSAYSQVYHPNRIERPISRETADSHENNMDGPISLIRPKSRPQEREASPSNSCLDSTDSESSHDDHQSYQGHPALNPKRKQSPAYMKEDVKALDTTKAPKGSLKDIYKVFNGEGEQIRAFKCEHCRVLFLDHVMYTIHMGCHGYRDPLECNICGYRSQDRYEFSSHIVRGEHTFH
T3 sequence (Q96SW2 whole entry): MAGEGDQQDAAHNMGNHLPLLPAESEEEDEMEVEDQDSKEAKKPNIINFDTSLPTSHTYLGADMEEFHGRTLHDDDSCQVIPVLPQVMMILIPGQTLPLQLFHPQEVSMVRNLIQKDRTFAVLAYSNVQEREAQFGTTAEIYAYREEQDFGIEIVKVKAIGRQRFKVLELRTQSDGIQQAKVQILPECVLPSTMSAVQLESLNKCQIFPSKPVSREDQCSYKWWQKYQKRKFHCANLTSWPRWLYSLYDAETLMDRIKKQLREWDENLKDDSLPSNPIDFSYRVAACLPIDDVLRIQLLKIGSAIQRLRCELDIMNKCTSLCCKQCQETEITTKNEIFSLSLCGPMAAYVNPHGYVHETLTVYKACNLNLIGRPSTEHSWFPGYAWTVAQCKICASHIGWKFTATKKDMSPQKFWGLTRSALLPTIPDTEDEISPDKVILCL
T3 sequence (Q16531 whole entry partner): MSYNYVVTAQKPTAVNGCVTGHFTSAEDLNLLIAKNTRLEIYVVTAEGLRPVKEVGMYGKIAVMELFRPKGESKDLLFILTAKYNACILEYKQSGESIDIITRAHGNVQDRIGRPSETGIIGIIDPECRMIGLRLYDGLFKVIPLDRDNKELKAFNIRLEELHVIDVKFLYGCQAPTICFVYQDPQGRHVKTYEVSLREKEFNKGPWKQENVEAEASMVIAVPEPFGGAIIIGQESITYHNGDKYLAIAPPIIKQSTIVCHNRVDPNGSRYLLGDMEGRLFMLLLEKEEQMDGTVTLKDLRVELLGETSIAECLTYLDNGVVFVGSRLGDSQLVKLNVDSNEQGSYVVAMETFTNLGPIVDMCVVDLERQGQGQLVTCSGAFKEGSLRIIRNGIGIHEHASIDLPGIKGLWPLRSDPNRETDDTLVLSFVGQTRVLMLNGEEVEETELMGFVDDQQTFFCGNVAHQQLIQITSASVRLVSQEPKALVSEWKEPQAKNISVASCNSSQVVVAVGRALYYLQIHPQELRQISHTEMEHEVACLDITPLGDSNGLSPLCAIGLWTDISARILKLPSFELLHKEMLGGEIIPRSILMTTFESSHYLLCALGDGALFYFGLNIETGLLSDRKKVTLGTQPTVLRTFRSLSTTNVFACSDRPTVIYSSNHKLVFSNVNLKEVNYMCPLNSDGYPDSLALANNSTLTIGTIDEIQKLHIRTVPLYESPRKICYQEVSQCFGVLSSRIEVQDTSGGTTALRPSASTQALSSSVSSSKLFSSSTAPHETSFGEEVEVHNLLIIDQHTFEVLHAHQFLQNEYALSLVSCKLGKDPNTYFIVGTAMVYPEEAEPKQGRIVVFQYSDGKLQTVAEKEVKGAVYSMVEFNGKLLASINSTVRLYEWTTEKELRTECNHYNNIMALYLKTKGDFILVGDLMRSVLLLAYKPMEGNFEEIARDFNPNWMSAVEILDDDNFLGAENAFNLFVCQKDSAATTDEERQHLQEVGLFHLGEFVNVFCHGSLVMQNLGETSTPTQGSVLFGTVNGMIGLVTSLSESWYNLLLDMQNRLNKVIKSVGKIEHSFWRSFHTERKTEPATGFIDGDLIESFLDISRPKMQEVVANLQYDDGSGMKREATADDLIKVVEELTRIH
T6 sequence (P15170 whole entry): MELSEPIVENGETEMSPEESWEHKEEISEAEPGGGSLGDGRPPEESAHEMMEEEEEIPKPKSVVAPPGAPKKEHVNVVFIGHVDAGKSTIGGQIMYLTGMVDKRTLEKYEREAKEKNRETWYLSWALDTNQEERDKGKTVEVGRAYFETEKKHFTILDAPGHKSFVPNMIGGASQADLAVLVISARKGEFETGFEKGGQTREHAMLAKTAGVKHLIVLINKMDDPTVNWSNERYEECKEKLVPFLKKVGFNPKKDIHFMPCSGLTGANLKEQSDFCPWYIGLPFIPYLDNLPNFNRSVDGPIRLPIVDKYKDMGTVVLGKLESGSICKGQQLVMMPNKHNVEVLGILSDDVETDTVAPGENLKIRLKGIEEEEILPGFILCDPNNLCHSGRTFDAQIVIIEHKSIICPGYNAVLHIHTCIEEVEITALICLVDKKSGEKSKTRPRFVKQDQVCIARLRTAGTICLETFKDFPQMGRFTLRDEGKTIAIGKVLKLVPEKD
T6 sequence (Q96SW2 whole entry): as the sequence (Q96SW2 whole entry) above
T6 sequence (Q16531 whole entry partner): as the sequence (Q16531 whole entry partner) above
T1 sequence (P30291 whole entry): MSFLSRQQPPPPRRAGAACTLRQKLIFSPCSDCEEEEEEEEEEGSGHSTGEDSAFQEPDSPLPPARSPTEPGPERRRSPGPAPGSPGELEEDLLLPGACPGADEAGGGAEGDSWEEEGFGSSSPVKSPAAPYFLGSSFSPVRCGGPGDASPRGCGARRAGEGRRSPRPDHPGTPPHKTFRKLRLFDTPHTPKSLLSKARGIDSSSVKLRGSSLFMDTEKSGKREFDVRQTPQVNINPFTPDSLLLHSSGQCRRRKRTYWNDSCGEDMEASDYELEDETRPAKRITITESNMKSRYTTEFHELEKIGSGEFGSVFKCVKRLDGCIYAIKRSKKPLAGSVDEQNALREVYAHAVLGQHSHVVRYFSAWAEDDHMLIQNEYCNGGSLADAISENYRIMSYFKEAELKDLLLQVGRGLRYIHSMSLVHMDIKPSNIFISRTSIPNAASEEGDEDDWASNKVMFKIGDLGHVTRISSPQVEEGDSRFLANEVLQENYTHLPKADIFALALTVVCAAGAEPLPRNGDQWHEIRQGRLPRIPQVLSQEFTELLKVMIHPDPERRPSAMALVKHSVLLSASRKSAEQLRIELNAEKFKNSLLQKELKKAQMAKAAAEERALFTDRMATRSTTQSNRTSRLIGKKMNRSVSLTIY
T1 sequence (Q96SW2 whole entry): as the sequence (Q96SW2 whole entry) above
T1 sequence (Q16531 whole entry partner): as the sequence (Q16531 whole entry partner) above
T2 sequence (Q13422 whole entry): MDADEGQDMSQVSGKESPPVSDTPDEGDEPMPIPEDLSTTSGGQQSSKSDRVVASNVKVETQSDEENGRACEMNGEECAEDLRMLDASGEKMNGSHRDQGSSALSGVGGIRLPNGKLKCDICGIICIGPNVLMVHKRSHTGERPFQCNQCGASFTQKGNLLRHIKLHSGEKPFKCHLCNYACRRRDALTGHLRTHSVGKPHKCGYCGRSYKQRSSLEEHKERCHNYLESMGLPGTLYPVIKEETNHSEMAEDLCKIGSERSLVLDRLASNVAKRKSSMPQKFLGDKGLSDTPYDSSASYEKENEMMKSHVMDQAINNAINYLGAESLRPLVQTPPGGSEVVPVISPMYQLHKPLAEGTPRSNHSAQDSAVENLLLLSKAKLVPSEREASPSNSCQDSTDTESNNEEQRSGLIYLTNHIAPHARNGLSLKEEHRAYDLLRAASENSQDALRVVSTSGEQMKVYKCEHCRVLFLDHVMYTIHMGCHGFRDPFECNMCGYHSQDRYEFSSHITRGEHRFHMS
T2 sequence (Q96SW2 whole entry): as the sequence (Q96SW2 whole entry) above
T2 sequence (Q16531 whole entry partner): as the sequence (Q16531 whole entry partner) above
T5 sequence (P48729 whole entry): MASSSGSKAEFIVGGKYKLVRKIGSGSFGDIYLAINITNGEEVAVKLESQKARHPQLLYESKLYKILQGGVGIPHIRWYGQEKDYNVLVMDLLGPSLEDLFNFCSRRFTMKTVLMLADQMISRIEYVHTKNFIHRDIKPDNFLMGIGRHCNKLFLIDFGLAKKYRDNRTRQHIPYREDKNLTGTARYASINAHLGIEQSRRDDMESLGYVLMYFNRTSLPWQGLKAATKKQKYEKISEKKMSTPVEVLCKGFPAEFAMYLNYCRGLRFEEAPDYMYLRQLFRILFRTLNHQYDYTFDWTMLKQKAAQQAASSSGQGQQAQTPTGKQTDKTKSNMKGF
T5 sequence (Q96SW2 whole entry): as the sequence (Q96SW2 whole entry) above
T5 sequence (Q16531 whole entry partner): as the sequence (Q16531 whole entry partner) above

SMILES	WEE1 substrate protein remaining % (WEE1)	IKZF1 substrate protein remaining % (IKZF1)	IKZF2 substrate protein remaining % (IKZF2)	IKZF3 substrate protein remaining % (IKZF3)	CK1α substrate protein remaining % (CK1α)	GSPT1 substrate protein remaining % (GSPT1)
O=C1CCN(N2Cc3cc(CN4CCC(c5ncnc6sc7c(c56)CCC7)CC4)ccc3C2=O)C(=O)N1 [GT-08113, 1-(5-((4-(6,7-dihydro-5H-cyclopenta[4,5]thieno[2,3-d]pyrimidin-4-yl)piperidin-1-yl)methyl)-1-oxoisoindolin-2-yl)dihydropyrimidine-2,4(1H,3H)-dione]	B (80%< substrate protein remaining % ≤100%)	B (80%< substrate protein remaining % ≤100%)	B (80%< substrate protein remaining % ≤100%)	B (80%< substrate protein remaining % ≤100%)	A (0% ≤ substrate protein remaining % ≤80%)	A (0% ≤ substrate protein remaining % ≤80%)
Cc1nc(C2CCN(Cc3ccc4c(c3)CN(N3CCC(=O)NC3=O)C4=O)CC2)c2c3c(sc2n1)CCC3 [GT-08114, 1-(5-((4-(2-methyl-6,7-dihydro-5H-cyclopenta[4,5]thieno[2,3-d]pyrimidin-4-yl)piperidin-1-yl)methyl)-1-oxoisoindolin-2-yl)dihydropyrimidine-2,4(1H,3H)-dione]	B (80%< substrate protein remaining % ≤100%)	B (80%< substrate protein remaining % ≤100%)	B (80%< substrate protein remaining % ≤100%)	B (80%< substrate protein remaining % ≤100%)	B (80%< substrate protein remaining % ≤100%)	A (0% ≤ substrate protein remaining % ≤80%)
O=C1CCN(N2Cc3cc(CN4CCC(c5ncc6ccsc6n5)CC4)ccc3C2=O)C(=O)N1 [GT-08115, 1-(1-oxo-5-((4-(thieno[2,3-d]pyrimidin-2-yl)piperidin-1-yl)methyl)isoindolin-2-yl)dihydropyrimidine-2,4(1H,3H)-dione]	B (80%< substrate protein remaining % ≤100%)	B (80%< substrate protein remaining % ≤100%)	B (80%< substrate protein remaining % ≤100%)	B (80%< substrate protein remaining % ≤100%)	A (0% ≤ substrate protein remaining % ≤80%)	A (0% ≤ substrate protein remaining % ≤80%)
O=C1CCN(N2Cc3cc(CN4CC=C(c5ncnc6sccc56)CC4)ccc3C2=O)C(=O)N1 [GT-08116, 1-(1-oxo-5-((4-(thieno[2,3-d]pyrimidin-4-yl)-3,6-dihydropyridin-1(2H)-yl)methyl)isoindolin-2-yl)dihydropyrimidine-2,4(1H,3H)-dione]	A (0% ≤ substrate protein remaining % ≤80%)	A (0% ≤ substrate protein remaining % ≤80%)	B (80%< substrate protein remaining % ≤100%)	A (0% ≤ substrate protein remaining % ≤80%)	A (0% ≤ substrate protein remaining % ≤80%)	A (0% ≤ substrate protein remaining % ≤80%)
Cc1csc2ncnc(C3=CCN(Cc4ccc5c(c4)CN(N4CCC(=O)NC4=O)C5=O)CC3)c12 [GT-08117, 1-(5-((4-(5-methylthieno[2,3-d]pyrimidin-4-yl)-3,6-dihydropyridin-1(2H)-yl)methyl)-1-oxoisoindolin-2-yl)dihydropyrimidine-2,4(1H,3H)-dione]	B (80%< substrate protein remaining % ≤100%)	B (80%< substrate protein remaining % ≤100%)	B (80%< substrate protein remaining % ≤100%)	A (0% ≤ substrate protein remaining % ≤80%)	A (0% ≤ substrate protein remaining % ≤80%)	A (0% ≤ substrate protein remaining % ≤80%)
O=C1CCN(N2Cc3cc(CN4CCC(c5cccc(F)c5F)CC4)ccc3C2=O)C(=O)N1 [GT-08194, 1-(5-((4-(2,3-difluorophenyl)piperidin-1-yl)methyl)-1-oxoisoindolin-2-yl)dihydropyrimidine-2,4(1H,3H)-dione]	B (80%< substrate protein remaining % ≤100%)	A (0% ≤ substrate protein remaining % ≤80%)	B (80%< substrate protein remaining % ≤100%)	B (80%< substrate protein remaining % ≤100%)	B (80%< substrate protein remaining % ≤100%)	A (0% ≤ substrate protein remaining % ≤80%)
O=C1CCN(N2C(=O)c3ccc(CN4CCC(c5ncnc6sc7c(c56)CCCC7)CC4)cc3C2=O)C(=O)N1 [GT-08424, 2-(2,4-dioxotetrahydropyrimidin-1(2H)-yl)-5-((4-(5,6,7,8-tetrahydrobenzo[4,5]thieno[2,3-d]pyrimidin-4-yl)piperidin-1-yl)methyl)isoindoline-1,3-dione]	B (80%< substrate protein remaining % ≤100%)	B (80%< substrate protein remaining % ≤100%)	B (80%< substrate protein remaining % ≤100%)	B (80%< substrate protein remaining % ≤100%)	A (0% ≤ substrate protein remaining % ≤80%)	A (0% ≤ substrate protein remaining % ≤80%)
O=C1CCN(N2C(=O)c3ccc(CN4CCC(c5ncc6ccsc6n5)CC4)cc3C2=O)C(=O)N1 [GT-08427, 2-(2,4-dioxotetrahydropyrimidin-1(2H)-yl)-5-((4-(thieno[2,3-d]pyrimidin-2-yl)piperidin-1-yl)methyl)isoindoline-1,3-dione]	A (0% ≤ substrate protein remaining % ≤80%)	B (80%< substrate protein remaining % ≤100%)	A (0% ≤ substrate protein remaining % ≤80%)	B (80%< substrate protein remaining % ≤100%)	B (80%< substrate protein remaining % ≤100%)	B (80%< substrate protein remaining % ≤100%)
Cc1csc2ncnc(C3=CCN(Cc4ccc5c(c4)C(=O)N(N4CCC(=O)NC4=O)C5=O)CC3)c12 [GT-08428, 2-(2,4-dioxotetrahydropyrimidin-1(2H)-yl)-5-((4-(5-methylthieno[2,3-d]pyrimidin-4-yl)-3,6-dihydropyridin-1(2H)-yl)methyl)isoindoline-1,3-dione]	A (0% ≤ substrate protein remaining % ≤80%)	B (80%< substrate protein remaining % ≤100%)	A (0% ≤ substrate protein remaining % ≤80%)	A (0% ≤ substrate protein remaining % ≤80%)	B (80%< substrate protein remaining % ≤100%)	B (80%< substrate protein remaining % ≤100%)
O=C1CCN(N2C(=O)c3ccc(CN4CC=C(c5ncnc6sc(-c7ccccc7)cc56)CC4)cc3C2=O)C(=O)N1 [GT-08430, 2-(2,4-dioxotetrahydropyrimidin-1(2H)-yl)-5-((4-(6-phenylthieno[2,3-d]pyrimidin-4-yl)-3,6-dihydropyridin-1(2H)-yl)methyl)isoindoline-1,3-dione]	A (0% ≤ substrate protein remaining % ≤80%)	B (80%< substrate protein remaining % ≤100%)	B (80%< substrate protein remaining % ≤100%)	B (80%< substrate protein remaining % ≤100%)	B (80%< substrate protein remaining % ≤100%)	B (80%< substrate protein remaining % ≤100%)
O=C1CCN(N2C(=O)c3ccc(CN4CC=C(c5ncnc6scc(-c7ccccc7)c56)CC4)cc3C2=O)C(=O)N1 [GT-08431, 2-(2,4-dioxotetrahydropyrimidin-1(2H)-yl)-5-((4-(5-phenylthieno[2,3-d]pyrimidin-4-yl)-3,6-dihydropyridin-1(2H)-yl)methyl)isoindoline-1,3-dione]	A (0% ≤ substrate protein remaining % ≤80%)	B (80%< substrate protein remaining % ≤100%)	A (0% ≤ substrate protein remaining % ≤80%)	B (80%< substrate protein remaining % ≤100%)	B (80%< substrate protein remaining % ≤100%)	B (80%< substrate protein remaining % ≤100%)
